Assay results from patent publication US20230364047A1, “USE OF ESTER GROUP-[…] PR[…] IN PREPARATION OF MEDICINE FOR TREATING DRY EYE SYNDROME” (CHANGCHUN GENESCIENCE PHARMACEUTICAL CO., LTD., priority 2020, published 2023).
Marks after values point to notes of the source that are not given here.

Experiments:
[1] = tested on: dry eye syndrome caused by castration of male rabbits; test: Corneal fluorescence staining (PI) score in castrated male rabbits; assay type: in vivo, Japanese big-ear white rabbit; conditions: score 0-4, x ± s, n=5
Protocol: (§1) 5, 2014-Oct. […] Body weight was measured on the first day and the last day of the quarantine period. • 7 Grouping and Identifying Method for Experimental Animals • 7.1 Identifying method for animals • 7.1.1 Quarantine period: fed in separate cages, tag hung on each cage, and no marking of animals. • 7.1.2 Administration observation period: marked by staining with saturated picric acid solution, and 5 rabbits in each group were marked in the following ways, respectively: head, back, tail, head and back, and white. • 7.2 Grouping of experimental animals: after the quarantine period was finished, 5 rabbits were randomly selected according to the body weight and used in the normal control group, and the rest rabbits were used in the modeling group. […] 5, 2014-Aug. 11, 2014 • 9.3 Date of grouping: Aug. 12, 2014, Sep. 15, 2014 • 9.4 Date of modeling: Aug. 12, 2014 • 9.5 Administration time: Sep. 15, 2014 • 9.6 Animal sacrifice time: Oct. 27, 2014 • 9.2 Duration of administration: two consecutive weeks from Sep. 15, 2014 to Sep. […]

[2] = tested on: dry eye syndrome caused by castration of male rabbits; test: Histopathology examination of harderian gland and meibomian gland in castrated male rabbits; assay type: in vivo, Japanese big-ear white rabbit; conditions: HE sections, in words
Protocol: as §1

[3] = Body weight and general state of castrated male rabbits during and after topical eye administration; conditions: x ± s, n=5
Protocol: (§2) 5, 2014-Oct. […] Body weight was measured on the first day and the last day of the quarantine period. • 7 Grouping and Identifying Method for Experimental Animals • 7.1 Identifying method for animals • 7.1.1 Quarantine period: fed in separate cages, tag hung on each cage, and no marking of animals. • 7.1.2 Administration observation period: marked by staining with saturated picric acid solution, and 5 rabbits in each group were marked in the following ways, respectively: head, back, tail, head and back, and white. • 7.2 Grouping of experimental animals: after the quarantine period was finished, 5 rabbits were randomly selected according to the body weight and used in the normal control group, and the rest rabbits were used in the modeling group. […] 5, 2014-Aug. 11, 2014 • 9.3 Date of grouping: Aug. 12, 2014, Sep. 15, 2014 • 9.4 Date of modeling: Aug. 12, 2014 • 9.5 Administration time: Sep. 15, 2014 • 9.6 Animal sacrifice time: Oct. 27, 2014 • 9.2 Duration of administration: two consecutive weeks from Sep. 15, 2014 to Sep. […] An aseptic towel was spread out, testicles at two sides were sequentially squeezed into the scrotum from abdominal cavity and clenched to prevent them from sliding, a small opening was cut on the scrotum with a sterilized blade, the testicles were squeezed out by force, the spermatic vein and vas deferens were ligated, the testicles and epididymis were cut out, the scrotum skin was sutured, and iodine tincture was coated locally to prevent infection. • 11.2 Administration method: administration was started on day 35 after the operation, at a prescribed dose for 14 consecutive days. • 11.3 Detection indexes: for each group, basal tear secretion (Schirmer I test), corneal fluorescence staining (PI) and tear film break-up time (BUT) were detected before the modeling and on days 0, 7, and 14 after the administration by performing surface anesthesia. • 11.3.1 Basal tear secretion (Schirmer I test): the 5 mm forepart of a qualitative filter paper (35 mm×6 mm) was reversely folded and placed in the lower eyelid bitamporal conjunctival sac, and the tear infiltration length (including the reversely-folded segment) of the test paper after 5 min was detected and recorded. • 11.3.2 Scoring criteria for corneal fluorescence staining (PI): 1% fluorescein sodium was applied to both eyes of a rabbit without subsequent rinsing, and a slit-lamp microscope was used for observation.

[4] = tested on: dry eye syndrome caused by castration of male rabbits; test: Basal tear secretion (Schirmer I test) in castrated male rabbits; assay type: in vivo, Japanese big-ear white rabbit
Protocol: as §2

[5] = topical to the eyes for 14 days
[6] = castrated male rabbits, topical to the eyes, Schirmer I 5 min, x ± s, n=5

## CCC(=O)O[C@H]1CC[C@H]2[C@@H]3CCC4=CC(=O)CC[C@]4(C)[C@H]3CC[C@]12C [Positive 2, testosterone propionate]
[1]; [5]
  Corneal staining score, Day 28 after drug withdrawal: 3.0 ± 1.22
[1]; topical to the eyes
  Corneal staining score, Day 7 of administration: 2.8 ± 0.22
  Corneal staining score, Day 14 of administration: 2.2 ± 0.57*^Δ▴
[2]
  Histopathology of harderian gland and meibomian gland compared with the model group: marked ameliorating
[3]; [5]
  Weight of rabbits, Day 7 after drug withdrawal: 3.0 ± 1.21 kg
  Weight of rabbits, Day 14 after drug withdrawal: 3.3 ± 1.31 kg
  Weight of rabbits, Day 21 after drug withdrawal: 3.6 ± 1.07 kg
  Weight of rabbits, Day 28 after drug withdrawal: 4.0 ± 1.20 kg
[3]; topical to the eyes
  Weight of rabbits, Day 7 of administration: 2.4 ± 1.10 kg
  Weight of rabbits, Day 14 of administration: 2.6 ± 1.05 kg
[4]; castrated male rabbits, topical to the eyes for 14 days, Schirmer I 5 min, x ± s, n=5
  Tear secretion, Day 28 after drug withdrawal: 12.2 ± 3.48 mm
[4]; [6]
  Tear secretion, Day 7 of administration: 12.7 ± 2.84 mm
  Tear secretion, Day 14 of administration: 14.8 ± 3.17*^Δ▴ mm
[4]; castrated rabbits, compared with the model group and the solvent group (P<0.05)
  Tear secretion, effect in words: increased markedly
